Experimental data taken from the supplement of paper PMC11061612.

How the values were obtained:
Experiment in all cases: Bliss excess, mean over the matrix (fraction); higher = more synergy
[1] = test system: Hs-633T (Other Solid Carcinomas)
Procedure, shortened: (§1)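 After 24 hours at 37°C and 5% CO2 in 1536-well plates, cells in DMEM/F12 or RPMI plus 10% FBS received two-drug dose matrices for 72 hours. Viability came from CellTiter-Glo 2.0 luminescence and was scaled as inhibition, anchored at 0 by vehicle wells and at 1 by blank wells. Combination Emax is taken as the second-highest inhibition in the matrix, and Bliss excess as the observed combination effect less EA + EB − EA·EB, with EA and EB the single-agent effects.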

[2] = test system: NCI-H69 (Small Cell Lung Carcinoma)
Procedure, shortened: as §1

SH-4 (Melanoma) = test system: SH-4 (Melanoma)
Procedure, shortened: as §1

[3] = test system: HO-1-u-1 (Oral Cavity Carcinoma)
Procedure, shortened: as §1

[4] = test system: SW626 (Colorectal Carcinoma)
Procedure, shortened: as §1

[5] = test system: SK-OV-3 (Ovarian Carcinoma)
Procedure, shortened: as §1

HMV-II (Melanoma) = test system: HMV-II (Melanoma)
Procedure, shortened: as §1

[6] = test system: KYSE-410 (Esophageal Squamous Cell Carcinoma)
Procedure, shortened: as §1

[7] = test system: K5 (Thyroid Gland Carcinoma)
Procedure, shortened: as §1

[8] = test system: OC-314 (Ovarian Carcinoma)
Procedure, shortened: as §1

[9] = test system: SW1116 (Colorectal Carcinoma)
Procedure, shortened: as §1

[10] = test system: HCC-15 (Squamous Cell Lung Carcinoma)
Procedure, shortened: as §1

[11] = test system: RKO (Colorectal Carcinoma)
Procedure, shortened: as §1

[12] = test system: RT-112 (Bladder Carcinoma)
Procedure, shortened: as §1

COLO-829 (Melanoma) = test system: COLO-829 (Melanoma)
Procedure, shortened: as §1

[13] = test system: SW1271 (Small Cell Lung Carcinoma)
Procedure, shortened: as §1

[14] = test system: KARPAS-231 (B-Cell Non-Hodgkin's Lymphoma)
Procedure, shortened: as §1

NCI-H2795 (Mesothelioma) = test system: NCI-H2795 (Mesothelioma)
Procedure, shortened: as §1

NB14 (Neuroblastoma) = test system: NB14 (Neuroblastoma)
Procedure, shortened: as §1

[15] = test system: TE-4 (Esophageal Squamous Cell Carcinoma)
Procedure, shortened: as §1

Row | SMILES | Bliss excess [1] | Bliss excess [2] | Bliss excess (SH-4 (Melanoma)) | Bliss excess [3] | Bliss excess [4] | Bliss excess [5] | Bliss excess (HMV-II (Melanoma)) | Bliss excess [6] | Bliss excess [7] | Bliss excess [8] | Bliss excess [9] | Bliss excess [10] | Bliss excess [11] | Bliss excess [12] | Bliss excess (COLO-829 (Melanoma)) | Bliss excess [13] | Bliss excess [14] | Bliss excess (NCI-H2795 (Mesothelioma)) | Bliss excess (NB14 (Neuroblastoma)) | Bliss excess [15]
1 | CC(=O)c1c(C)c2cnc(Nc3ccc(N4CCNCC4)cn3)nc2n(C2CCCC2)c1=O [Palbociclib] + Cn1cnc2c(F)c(Nc3ccc(Br)cc3Cl)c(C(=O)NOCCO)cc21 [Selumetinib] (first compound max 10 µM, 7x7, partner max 10 µM) | 0.0767 | -0.0071 | 0.0333 | 0.0772 | -0.057 | -0.0419 | -0.0203 | 0.0141 | -0.0341 | 0.0141 | -0.0189 | -0.0069 | 0.082 | -0.0333 | -0.0772 | -0.0417 | -0.134 | -0.0173 | 0.0461 | -0.0115
2 | COc1cccc(OCCCN)c1-c1cc(Nc2cnc(C#N)cn2)n[nH]1 [Prexasertib] + C=CCn1c(=O)c2cnc(Nc3ccc(N4CCN(C)CC4)cc3)nc2n1-c1cccc(C(C)(C)O)n1 [AZD1775] (first compound max 1 µM, partner max 1 µM) | 0.0796 | 0.151 | 0.0591 | 0.0122 | 0.0304 | 0.0324 | 0.0779 | 0.0066 | 0.0807 | 0.0884 | 0.0689 | 0.0293 | 0.0521 | 0.119 | -0.0067 | 0.0019 | 0.0482 | 0.0221 | 0.0486 | 0.0905
3 | COc1cccc(OCCCN)c1-c1cc(Nc2cnc(C#N)cn2)n[nH]1 [Prexasertib] + CCc1c2c(nc3ccc(O)cc13)-c1cc3c(c(=O)n1C2)COC(=O)[C@]3(O)CC [SN-38] (first compound max 1 µM, 7x7, partner max 0.3 µM) | -0.0609 | 0.162 | -0.0831 | 0.0348 | -0.0156 | -0.0344 | -0.0304 | -0.0192 | -0.0708 | 0.0061 | 0.076 | 0.0659 | -0.0686 | 0.104 | 0.0036 | -0.088 | -0.0111 | -0.106 | 0.0073 | 0.107
4 | COc1cccc(OCCCN)c1-c1cc(Nc2cnc(C#N)cn2)n[nH]1 [Prexasertib] + CN(C)CCCOc1ccc(-c2ccc3ncc4c(c3c2)n(C2CCOCC2)c(=O)n4C)cn1 [AZD0156] (first compound max 1 µM, 7x7, partner max 1 µM) | -0.0151 | -0.081 | 0.0424 | 0.0251 | -0.0035 | -0.066 | -0.0143 | -0.03 | -0.0339 | 0.009 | -0.0253 | -0.0156 | -0.014 | 0.0134 | 0.0127 | -0.0183 | 0.0423 | 0.05 | -0.033 | -0.0049
5 | COc1cccc(OCCCN)c1-c1cc(Nc2cnc(C#N)cn2)n[nH]1 [Prexasertib] + C[C@@H]1COCCN1C2=NC(=NC(=C2)C3(CC3)[S@](=N)(=O)C)C4=C5C=CNC5=NC=C4 [AZD6738] (first compound max 1 µM, 7x7, partner max 10 µM) | 0.0095 | -0.0356 | -0.0786 | -0.0013 | 0.007 | -0.0412 | 0.0359 | -0.0548 | 0.0037 | 0.0344 | 0.0637 | 0.0058 | -0.0176 | 0.0275 | 0.001 | -0.0337 | -0.0498 | 0.0361 | 0.0092 | 0.0058
6 | COc1cccc(OCCCN)c1-c1cc(Nc2cnc(C#N)cn2)n[nH]1 [Prexasertib] + Cc1cc2ncnn2cc1Nc1ncc2c(n1)n(C1CCOCC1)c(=O)n2C [AZD7648] (first compound max 1 µM, 7x7, partner max 10 µM) | 0.0201 | 0.0337 | -0.0545 | 0.0035 | 0.0236 | -0.0686 | 0.0203 | -0.0267 | -0.0405 | -0.0286 | -0.0183 | 0.0328 | -0.0193 | -0.0357 | 0.0467 | -0.0014 | 0.0123 | -0.0556 | -0.0047 | -0.003
